Reference: paper PMC10765884, “MC180295 is a highly potent and selective CDK9 inhibitor with preclinical in vitro and in vivo efficacy in cancer” (Clinical Epigenetics, 2024)
“Also recorded” adds a separate entry of the source.

What was measured:
[1] = tested on: GFP silenced by a methylated CMV promoter in YB5 cells; test: Live-cell assay for GFP reactivation in YB5 cells; format: cell-based; conditions: for lowest concentration reactivating GFP: after 24 h treatment, FACS
Method: To identify novel epigenetic targets, we previously used a phenotype-based screen, the YB5 SW48 daughter cell line reporter system, to identify drugs that can reactivate GFP silenced by a methylated CMV promoter. […] […]. To better understand MC180295's antitumor effects, we tested its growth inhibition in a panel of cancer cell lines.
The live-cell assay for GFP reactivation in YB5 cells was done as previously described. Cells were treated with a single dose of drug 24 h after seeding at low density, and GFP fluorescence measured in a Millipore Guava flow cytometer (EMD, Millipore) instrument, or by imaging in a Cytation instrument (Agilent). Cancer cell lines (listed in Additional file 1: Fig. S1A) were obtained from ATCC or the Temple/Fox Chase Cellular Repository and cultured in the recommended medium. To measure growth inhibition, cells were seeded in 96-well plates at 40% confluency. Fresh medium was changed the next day and drugs were added directly. Drug-free fresh medium was changed on the fourth day. The cells were collected on day 5 by trypsin, suspended in medium, mixed with trypan blue (Thermo Fisher Scientific) (1:1 ratio), and counted using a LUNA II automated cell counter. Each sample was counted at least three times, and average numbers used for the analysis. Each treatment condition was performed in biological triplicates.

[2] = Drug toxicity: body weights and complete blood counts in tumor-bearing mice; format: in vivo
Method: For the s.c. SW48 model, 2 × 10^6 cells were injected into the flanks of randomly assigned, gender-matched 8–10-week-old NSG mice. 20 mg/kg MC180379, MC180380, or MC180295 was injected (i.p.), every other day, when the tumors were palpable, 11 days after engraftment, until endpoints were met. Mice were sacrificed before tumor volumes exceeded 400 mm^2 (endpoint for this model). For the s.c. HT29 model, 2 × 10^6 cells were injected into the flanks of randomly assigned, gender-matched, 8–10-week-old NSG mice. 20 mg/kg MC180379 or MC180380 was injected (i.p.), every other day, when the tumors were palpable, 12 days after engraftment, until endpoints were met. Mice were sacrificed before tumors volumes exceeded 400 mm^2 (used as the endpoint for this model). For the CT26.CL25 model, 5 × 10^5 cells were injected into the flanks of randomly assigned female 8–10-week-old B6 mice. 20 mg/kg MC180295 was injected (i.p.), every other day, when the tumors were palpable, 8 days after engraftment, until endpoints were met. 0.5 mg/kg DAC was injected (i.p.) daily until an endpoint was met. Mice were sacrificed when they developed serious tumoral ulcerations. CD8 + T cells were depleted using an anti-CD8 antibody (InVivoMAb anti-mouse CD8 (Lyt 2.1), BE0118) on days 4, 5, and 11 after inoculation. MC180295, MC180379, and MC180380 were dissolved in NMP (Fisher Scientific), Captisol® (20% w/v) (CyDex), PEG-400 (Millipore Sigma), and normal saline (PBS) (Corning), at a ratio of 1:4:4:11. NMP was added first, followed by Captisol and PEG-400. PBS was added last. DAC was dissolved in water. In a subset of the experiments, after mice were sacrificed, peripheral blood was collected, and complete blood counts were obtained using Abaxis VetScan HM5.

SW48 cells = test: SW48 colon cancer xenograft in NSG mice; format: in vivo; conditions: for tumor growth / tumor size / survival: SW48 s.c. in NSG mice, 20 mg/kg i.p. q.o.d.; for tumor growth / tumor size: vs vehicle
Method: Fig. 3 Antitumor, survival, and metabolic effects of MC180295 and its enantiomers, MC180379 and MC180380. A Antitumor effects of MC180295, MC180379, and MC180380. NSG mice were inoculated (s.c.) with 2 × 10^6 SW48 cells. Eleven days later, when tumors were palpable, 20 mg/kg MC180295, MC180379, MC180380, or vehicle were administered (i.p.) every other day (q.o.d.). Tumor sizes were measured using a caliper. […] . C Antitumor effects of MC180379 and MC180380. NSG mice were inoculated (s.c.) with 1 × 10^6 HT29 cells. Twelve days later, when tumors were palpable, 20 mg/kg MC180379, MC180380, or vehicle were administered (i.p.) q.o.d. Tumor sizes were measured using a caliper. D HT29-xenografted mouse survival following (i.p.) q.o.d. dosing with 20 mg/kg MC180379 or MC180380. E NSG mice were inoculated (i.p.) with 5 × 10^5 MV4-11-luc cells. Four days later, when substantial tumor burden was evident by bioluminescence imaging, MC180379, MC180380, or vehicle were administered (i.p.) q.o.d at 20 mg/kg. Luciferase expression was quantified and calculated. F Mouse survival in days. […] G In vitro liver microsome stability and rat hepatocyte/Sprague–Dawley stability assay comparing MC180379 to MC180380. The dog breed was beagle and the mouse microsome strain was CD-1. All sexes (including the hepatocytes) were male except the human microsomes which were mixed gender. Significances were calculated using log-rank (Mantel-Cox) or Student’s t tests.
Fig. 4 Antitumor and survival-extending properties of a hypomethylating agent (DAC) combined with MC180295. A Antitumor effects of MC180295 and MC180295 + DAC. NSG mice were inoculated (s.c.) with 2 × 10^6 SW48 cells. Eleven days later, when tumors were palpable, 20 mg/kg MC180295 or vehicle were administered (i.p.) q.o.d. 0.5 mg/kg DAC was administered (i.p.) daily. Tumor sizes were measured using a caliper. B Mouse survival in days. 20 mg/kg MC180295 was administered (i.p.) q.o.d. 0.5 mg/kg DAC was administered (i.p.) daily. C NSG mice were inoculated (i.p.) with 5 × 10^5 MV4-11-luc cells. Four days later, when substantial tumor burden was evident by bioluminescence imaging, MC180295 (20 mg/kg) or vehicle were administered (i.p.) every other day. 0.5 mg/kg DAC was administered (i.p.) daily. Luciferase expression was quantified and calculated. […] E Antitumor effects of MC180380 and MC180380 + DAC. NSG mice were inoculated (s.c.) with 2 × 10^6 SW48 cells. Eleven days later, when tumors were palpable, 10 mg/kg MC180380, 20 mg/kg MC180380, or vehicle was administered (i.p.) q.o.d. 0.5 mg/kg DAC was administered (i.p.) daily. Mouse survival shown in days. Significances were calculated using log-rank (Mantel-Cox) or Student's t tests. Data are shown as means ± SEMs. ***p < 0.001
For the s.c. SW48 model, 2 × 10^6 cells were injected into the flanks of randomly assigned, gender-matched 8–10-week-old NSG mice.

[3] = SW48 model, 20 mg/kg i.p. q.o.d.
[4] = HT29 model, 20 mg/kg i.p. q.o.d.

Compound	lowest concentration reactivating GFP [1]	body weights ([2]; CT26.CL25 immunocompetent mice, after CD8 depletion, Fig. S5B)	body weights ([2]; CT26.CL25 immunocompetent mouse model, Fig. S5A)	body weights ([2]; SW48 model, NSG mice, Fig. S4C)	tumor growth / tumor size (SW48 cells; 20 mg/kg)	tumor growth / tumor size (SW48 cells; listed as MC190295, 20 mg/kg)	survival (SW48 cells; 20 mg/kg)	tolerability; neutrophil, lymphocyte, monocyte counts [2, 3]	survival (SW48 cells)	potency in inducing GFP (comparison of enantiomers) ([1]; 24 h and 4 days after one-time treatment)	absolute lymphocyte and monocyte counts [2, 4]	platelet counts [2, 4]	platelet counts [2, 3]	body weights ([2]; SW48 model, NSG mice, Fig. S4E)	bone marrow suppression ([2]; in vivo, from lymphocyte, monocyte and platelet counts)	overall survival, dose comparison (SW48 cells; SW48 in NSG mice, 10 or 20 mg/kg MC180380 i.p. q.o.d.)
Nc1nc(N[C@H]2C[C@@H]3CC[C@H]2C3)sc1C(=O)c1ccccc1[N+](=O)[O-] (relative stereo) [MC180295]	100 nM	neither MC180295 nor MC180295 + DAC treatment affected NSG mouse body weights, after CD8 depletion	neither MC180295 nor MC180295 + DAC treatment affected NSG mouse body weights	did not affect NSG mouse body weights	significantly reduce tumor size	no statistical difference in tumor size	prolong overall survival									
Nc1nc(N[C@@H]2C[C@H]3CC[C@@H]2C3)sc1C(=O)c1ccccc1[N+](=O)[O-] [MC180379]	500 nM							well-tolerated	no survival difference							
Nc1nc(N[C@H]2C[C@@H]3CC[C@H]2C3)sc1C(=O)c1ccccc1[N+](=O)[O-] [MC180380]	100 nM						no survival difference	well-tolerated		more potent than MC18379 in inducing GFP; also recorded: epigenetically more potent than MC180379	higher absolute lymphocyte and monocyte counts than MC180379-treated mice	higher platelet counts than those treated with MC180379	slightly higher platelet counts than MC180379	did not affect NSG mouse body weights	less bone marrow-suppressive (and thus less toxic) than MC180379	20 mg/kg led to better overall survival than 10 mg/kg
